Source: patent US10919896B2, “Preparation and uses of pyrimidinone derivatives” (Cancer Research Technology Limited, priority 2016, dated 2021)

Each compound was assayed against Cdc7/ASK (Homo sapiens, UniProt O00311) (assay: Cdc7 Biochemical Assay Method 1: 384 well ELISA, whole protein substrate MCM2, antibody against Phospho MCM2 (S53)). Settings: 2 μM ATP, read-out: Biochemical Method 1 (pIC50) (converted).
Sequence of Cdc7/ASK (O00311 whole entry): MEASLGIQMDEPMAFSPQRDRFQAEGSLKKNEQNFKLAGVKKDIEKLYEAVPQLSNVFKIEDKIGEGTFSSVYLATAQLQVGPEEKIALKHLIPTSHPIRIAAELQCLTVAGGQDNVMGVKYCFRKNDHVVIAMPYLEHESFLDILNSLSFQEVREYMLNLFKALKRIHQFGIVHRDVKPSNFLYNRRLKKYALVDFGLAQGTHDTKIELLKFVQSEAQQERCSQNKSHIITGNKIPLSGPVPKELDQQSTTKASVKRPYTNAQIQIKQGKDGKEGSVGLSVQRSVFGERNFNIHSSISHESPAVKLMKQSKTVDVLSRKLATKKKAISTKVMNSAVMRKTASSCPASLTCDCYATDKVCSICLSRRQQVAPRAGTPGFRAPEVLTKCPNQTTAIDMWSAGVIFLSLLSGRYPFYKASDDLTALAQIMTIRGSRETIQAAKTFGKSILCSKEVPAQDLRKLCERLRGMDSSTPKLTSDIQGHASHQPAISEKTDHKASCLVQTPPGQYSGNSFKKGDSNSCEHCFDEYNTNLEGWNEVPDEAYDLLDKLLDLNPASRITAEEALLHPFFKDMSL
Sequence of Cdc7/ASK (Q9UBU7 whole entry partner): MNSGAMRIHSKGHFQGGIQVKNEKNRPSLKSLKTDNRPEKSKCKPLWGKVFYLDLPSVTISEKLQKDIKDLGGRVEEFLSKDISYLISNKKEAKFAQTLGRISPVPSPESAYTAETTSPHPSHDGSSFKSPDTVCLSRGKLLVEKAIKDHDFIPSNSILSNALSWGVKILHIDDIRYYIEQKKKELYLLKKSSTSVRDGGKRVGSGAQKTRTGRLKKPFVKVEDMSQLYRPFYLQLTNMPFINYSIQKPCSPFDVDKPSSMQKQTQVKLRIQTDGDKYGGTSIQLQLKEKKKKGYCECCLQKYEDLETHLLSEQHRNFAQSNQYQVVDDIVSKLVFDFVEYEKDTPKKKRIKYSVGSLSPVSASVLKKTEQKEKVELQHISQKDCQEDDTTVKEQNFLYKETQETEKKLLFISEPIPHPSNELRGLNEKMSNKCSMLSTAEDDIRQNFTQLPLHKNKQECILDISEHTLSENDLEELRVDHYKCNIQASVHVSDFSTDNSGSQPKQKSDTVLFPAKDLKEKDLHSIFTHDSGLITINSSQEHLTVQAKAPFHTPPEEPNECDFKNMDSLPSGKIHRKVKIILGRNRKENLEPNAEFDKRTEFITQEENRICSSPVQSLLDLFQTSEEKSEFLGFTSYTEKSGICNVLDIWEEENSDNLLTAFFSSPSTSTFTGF
Parameters: purchased
Description: This protocol describes a method for assaying Cdc7/ASK for activity. The assay is a 384 well ELISA assay, utilising a whole protein substrate (MCM2) and an antibody against Phospho MCM2 (S53). This site is thought to be specific to Cdc7/ASK phosphorylation and the assay has been validated using knockout mutants. Reagents • TBS: 25 mM Tris pH 7.2, 150 mM NaCl. (Dilute 10× stock by 1:10). • Wash Buffer: TBS+0.05% Tween 20. (Add 100 mL 1 M Tris pH 7.2, 120 mL 5 M NaCl and 2 mL 100% Tween 20 per 4 L). • Kinase Reaction Buffer: 50 mM Tris-HCl pH 8.5, 10 mM MgCl2, 1 mM DTT. (Dilute 10× stock by 1:10 and add 100 μL 1M DTT per 100 mL prior to assay). • Diethanolamine Buffer: 1 M diethanolamine pH 9.8, 0.5 mM MgCl2. • Stop Solution: 1 M NaOH. • MCM2 was expressed and purified in-house and used in the assay at a final assay concentration of 436 ng/well. • Cdc7/ASK is purchased from commercial suppliers and used in the assay at a final assay concentration of 37.97 ng/well or 20.63 nM. • ATP used as a final assay concentration of 2 μM. • Primary Antibody: Rabbit anti-Phospho MCM2 (S53 Antibody (BL3353)), is purchased from commercial suppliers at 0.2 mg/mL and used at a final assay concentration by diluting 1:800 in TBS. • Secondary Antibody: Anti-Rabbit/AP Antibody is supplied is purchased from commercial suppliers at 1 mg/mL and used at a final assay concentration by diluting 1:2000 in TBS. • Development Reagent: Dissolve one 20 mg PNPP tablet (Sigma, product […], 20 mg per tablet) per 20 mL diethanolamine Buffer (or one 5 mg PNPP tablet per 5 mL diethanolamine buffer). Cover in foil and leave shaking on a roller shaker at room temperature for up to an hour to dissolve. Methods • 1. Add 20 μL 1× working stock of Substrate (MCM2) in TBS to all wells of a clear, 384 well, Nickel-chelate microplate to give a final concentration of […]. Incubate at room temperature for at least 1 hour. Plates can be pre-coated for 1 hour and stored at 4° C. for up to 8 days. • 2. Wash with TBS+0.05% Tween 20 (80 μL×3). • 3. Add 2 μL 10× test compounds, including the positive control, in 40% DMSO/water to 'test' wells. Add 2 μL 40% DMSO/water to 'control' and 'blank' wells. The final DMSO concentration will be 4%. • 4. Add 13 μL CDC7/ASK Kinase (1.5× stock) in Kinase Reaction Buffer to 'test' and 'control' wells to give a final concentration of […]. Add 13 μL Kinase Reaction Buffer to 'blank' wells. • 5. Add 5 μL ATP (4× stock) in Kinase Reaction Buffer to all wells to give a final concentration of 2 μM. • 6. Incubate at room temperature for 90 minutes. • 7. Wash with TBS+0.05% Tween 20 (80 μL×3). • 8. Add 20 μL 1× working solution of Primary Antibody in TBS to all wells. Incubate at room temperature for 30 minutes. • 9. Wash with TBS+0.05% Tween 20 (80 μL×3). • 10. Add 20 μL 1× working solution of Secondary Antibody in TBS to all wells. Incubate at room temperature for 30 minutes. • 11. Wash with TBS+0.05% Tween 20 (80 μL×3). • 12. Add 20 μL 1× Development Reagent to all wells. • 13. Incubate at room temperature for 2 hours. Stop the reaction by adding 20 μL Stop Solution to all wells and record Absorbance on a Pherastar plate reader. Percentage inhibition values were calculated from absorbance values, using the no compound (DMSO) and no enzyme control values as 0% and 100% inhibition, respectively. IC50 determination was performed with ExcelFit software (IDBS) using curve fit 205. Z' factors were determined for each plate tested and were all above 0.5. Method 2
For `CC(C)(C)OC(=O)N1CCC(c2nc(-c3ccncc3)[nH]c(=O)c2Cl)CC1` [Compound 1, tert-Butyl 4-[5-chloro-6-oxo-2-(4-pyridyl)-1H-pyrimidin-4-yl]piperidine-1-carboxylate], the IC50 was 70.8 nM.
In the case of `O=c1[nH]c(-c2ccncc2)nc(C2CCNCC2)c1Cl` [Compound 2, 5-Chloro-6-piperidin-4-yl-2-pyridin-4-yl-3H-pyrimidin-4-one], the IC50 is reported as 1.74 nM.
Compound `O=c1[nH]c(-c2ccncc2)nc(C2CCOCC2)c1Br` [Compound 3, 5-bromo-2-(4-pyridyl)-4-tetrahydropyran-4-yl-1H-pyrimidin-6-one] has an IC50 of 6.76 nM.
Compound `O=c1[nH]c(-c2ccncc2)nc(C2CCOCC2)c1I` [Compound 4, 5-Iodo-2-(4-pyridyl)-4-tetrahydropyran-4-yl-1H-pyrimidin-6-one] has an IC50 of 331 nM.
For `O=c1[nH]c(-c2ccncc2)nc(C2CCOCC2)c1F` [Compound 5, 5-fluoro-2-(4-pyridyl)-4-tetrahydropyran-4-yl-1H-pyrimidin-6-one], the IC50 was 6.31 nM.
For `O=c1[nH]c(-c2ccncc2)nc(C2CCOCC2)c1Cl` [Compound 6], the IC50 was 1.45 nM.
With `O=c1[nH]c(-c2ccncc2)nc(C2CCCN2)c1Cl` (stereo not drawn) [Compound 7] the IC50 was 2450 nM.
Compound `O=c1[nH]c(-c2ccncc2)nc(C2CCCNC2)c1Cl` (stereo not drawn) [Compound 8] has an IC50 of 3.63 nM.
`CC1(c2nc(-c3ccncc3)[nH]c(=O)c2Cl)CCOCC1` [Compound 9] was tested, and the IC50 was 3.39 nM.
`CC1(c2nc(-c3ccnc(F)c3)[nH]c(=O)c2Cl)CCOCC1` [Compound 10] gave an IC50 of 3.02 nM.
Compound `O=c1[nH]c(-c2ccncc2)nc(C2CCNC2)c1Cl` (stereo not drawn) [Compound 11] has an IC50 of 5.25 nM.
`O=c1[nH]c(-c2ccncc2)nc(C2CCOC2)c1Cl` (stereo not drawn) [Compound 12] was tested, and the IC50 was 20 nM.
`CC(C)C1CC(c2nc(-c3ccncc3)[nH]c(=O)c2Cl)CCO1` (stereo not drawn) [Compound 14] was tested, and the IC50 was 123 nM.
`O=c1[nH]c(-c2ccncc2)nc(C2CCCCO2)c1Cl` (stereo not drawn) [Compound 15] was tested, and the IC50 was 832 nM.
For `O=c1[nH]c(-c2ccncc2)nc(C2CCCOC2)c1Cl` (stereo not drawn) [Compound 16], the IC50 was 12.9 nM.
`O=c1[nH]c(-c2ccnc(F)c2)nc(C2CCOCC2)c1F` [Compound 17] showed an IC50 of 2.34 nM.
For `O=c1[nH]c(-c2ccnc(F)c2)nc(C2(F)CCOCC2)c1Cl` [Compound 18], the IC50 was 0.794 nM.
For `O=c1[nH]c(-c2ccncc2)nc(C2(F)CCCNC2)c1Cl` (stereo not drawn) [Compound 19], the IC50 was 3.39 nM.
With `O=c1[nH]c(-c2ccncc2)nc(C2CNCCO2)c1Cl` (stereo not drawn) [Compound 20] the IC50 was 347 nM.
Work on `O=c1[nH]c(-c2ccncc2)nc(C2(F)CCNCC2)c1Cl` [Compound 21] yielded an IC50 of 1.51 nM.
`CC(C)(C)OC(=O)N1CCC(F)(c2nc(-c3ccncc3)[nH]c(=O)c2Cl)CC1` [Compound 22] was tested, and the IC50 was 74.1 nM.
`O=c1[nH]c(-c2ccnc(Cl)c2)nc(C2CCOCC2)c1Cl` [Compound 23] gave an IC50 of 19.1 nM.
`O=c1[nH]c(-c2ccnc(C(F)(F)F)c2)nc(C2CCOCC2)c1Cl` [Compound 24] gave an IC50 of 1020 nM.
`CC(C)(C)OC(=O)N1CCC(c2nc(-c3ccnc(F)c3)[nH]c(=O)c2Cl)CC1` [Compound 25] was tested, and the IC50 was 23.4 nM.
`O=c1[nH]c(-c2ccncc2)nc(N2CCCCC2)c1Cl` [Compound 26, 5-chloro-4-(1-piperidyl)-2-(4-pyridyl)-1H-pyrimidin-6-one] was tested, and the IC50 was 6.76 nM.
`CCOC1CCN(c2nc(-c3ccncc3)[nH]c(=O)c2Cl)CC1` [Compound 27] gave an IC50 of 21.4 nM.
For `CN(C)C1CCN(c2nc(-c3ccncc3)[nH]c(=O)c2Cl)C1` (stereo not drawn) [Compound 29], the IC50 was 1260 nM.
Work on `O=c1[nH]c(-c2ccncc2)nc(N2CCCC2)c1Cl` [Compound 30] yielded an IC50 of 132 nM.
With `CC(C)(C)OC(=O)N1CCN(c2nc(-c3ccncc3)[nH]c(=O)c2Cl)CC1` [Compound 32] the IC50 was 100 nM.
`O=C1CN(c2nc(-c3ccncc3)[nH]c(=O)c2Cl)CCN1` [Compound 33] was tested, and the IC50 was 12.9 nM.
Compound `CC(C)C(=O)N1CCC(c2nc(-c3ccncc3)[nH]c(=O)c2Cl)CC1` [Compound 34, 5-chloro-4-[1-(2-methylpropanoyl)-4-piperidyl]-2-(4-pyridyl)-1H-pyrimidin-6-one] has an IC50 of 13.2 nM.
`CC(C)(C)OC(=O)NCC(=O)N1CCC(c2nc(-c3ccncc3)[nH]c(=O)c2Cl)CC1` [Compound 35, tert-butyl-N-[2-[4-[5-chloro-6-oxo-2-(4-pyridyl)-1H-pyrimidin-4-yl]-1-piperidyl]-2-oxo-ethyl]carbamate] was tested, and the IC50 was 22.9 nM.
Work on `CC(C)NC(=O)N1CCC(c2nc(-c3ccncc3)[nH]c(=O)c2Cl)CC1` [Compound 36, 4-[5-chloro-6-oxo-2-(4-pyridyl)-1-H-pyrimidin-4-yl]-N-isopropyl-piperidine-1-carboxamide] yielded an IC50 of 25.7 nM.
With `O=c1[nH]c(-c2ccncc2)nc(C2CCN(S(=O)(=O)c3ccccc3)CC2)c1Cl` [Compound 37, 4-[1-(benzenesulfonyl)-4-piperidyl]-5-chloro-2-(4-pyridyl)-1H-pyrimidin-6-one] the IC50 was 30.2 nM.
`O=C(N1CCC(c2nc(-c3ccncc3)[nH]c(=O)c2Cl)CC1)C(F)(F)F` [Compound 38, 5-chloro-2-(4-pyridyl)-4-[1-(2,2,2-trifluoroacetyl)-4-piperidyl]-1H-pyrimidin-6-one] gave an IC50 of 5.62 nM.
`CC(=O)N1CCC(c2nc(-c3ccncc3)[nH]c(=O)c2Cl)CC1` [Compound 40] was tested, and the IC50 was 8.13 nM.
With `O=C(c1ccccc1)N1CCC(c2nc(-c3ccncc3)[nH]c(=O)c2Cl)CC1` [Compound 41] the IC50 was 6.92 nM.
In the case of `CC(=O)N1CCN(c2nc(-c3ccncc3)[nH]c(=O)c2Cl)CC1` [Compound 42], the IC50 is reported as 5.13 nM.
`CS(=O)(=O)N1CCN(c2nc(-c3ccncc3)[nH]c(=O)c2Cl)CC1` [Compound 43] showed an IC50 of 3.16 nM.
With `CC(C)(C)C(=O)N1CCC(c2nc(-c3ccncc3)[nH]c(=O)c2Cl)CC1` [Compound 44] the IC50 was 63.1 nM.
In the case of `O=C(c1ccccn1)N1CCC(c2nc(-c3ccncc3)[nH]c(=O)c2Cl)CC1` [Compound 45], the IC50 is reported as 8.71 nM.
With `N#Cc1ccc(C(=O)N2CCC(c3nc(-c4ccncc4)[nH]c(=O)c3Cl)CC2)cc1` [Compound 46] the IC50 was 1.41 nM.
`O=C(c1ccnnc1)N1CCC(c2nc(-c3ccncc3)[nH]c(=O)c2Cl)CC1` [Compound 47] was tested, and the IC50 was 1.12 nM.
Work on `N#Cc1cccc(C(=O)N2CCC(c3nc(-c4ccncc4)[nH]c(=O)c3Cl)CC2)c1` [Compound 48] yielded an IC50 of 2.57 nM.
`O=C(c1ccccc1I)N1CCC(c2nc(-c3ccncc3)[nH]c(=O)c2Cl)CC1` [Compound 49] gave an IC50 of 15.8 nM.
In the case of `O=C(c1cccc(O)c1)N1CCC(c2nc(-c3ccncc3)[nH]c(=O)c2Cl)CC1` [Compound 50], the IC50 is reported as 3.09 nM.
With `O=C(c1ccco1)N1CCC(c2nc(-c3ccncc3)[nH]c(=O)c2Cl)CC1` [Compound 51] the IC50 was 5.13 nM.
Work on `Cc1cc(C(=O)N2CCC(c3nc(-c4ccncc4)[nH]c(=O)c3Cl)CC2)[nH]n1` [Compound 52] yielded an IC50 of 2.63 nM.
`O=C(Cc1c[nH]cn1)N1CCC(c2nc(-c3ccncc3)[nH]c(=O)c2Cl)CC1` [Compound 53] showed an IC50 of 5.75 nM.
In the case of `Cc1nc(C)c(C(=O)N2CCC(c3nc(-c4ccncc4)[nH]c(=O)c3Cl)CC2)s1` [Compound 54], the IC50 is reported as 0.871 nM.
`Cn1cnc(C(=O)N2CCC(c3nc(-c4ccncc4)[nH]c(=O)c3Cl)CC2)c1` [Compound 55] was tested, and the IC50 was 2.09 nM.
Compound `Cc1cc(C(=O)N2CCC(c3nc(-c4ccncc4)[nH]c(=O)c3Cl)CC2)n(C)n1` [Compound 56] has an IC50 of 1.62 nM.
Compound `O=C(c1cscn1)N1CCC(c2nc(-c3ccncc3)[nH]c(=O)c2Cl)CC1` [Compound 57] has an IC50 of 3.47 nM.
`Cc1cc(C(=O)N2CCC(c3nc(-c4ccncc4)[nH]c(=O)c3Cl)CC2)nn1C` [Compound 58] was tested, and the IC50 was 0.912 nM.
